# Patent US8012944B2, “Method for treating cancer using IAP antisense oligomer and chemotherapeutic agent” (Pharmascience Inc., priority 2003, dated 2011)
# Oligonucleotides are written 5' to 3', each unit as a sugar letter and its base; * is a phosphorothioate linkage, no mark a phosphodiester; rarer units and linkages stand in square brackets, end groups in braces. Plain capitals give the bases only. d = 2'-deoxy (DNA)
# How the values were obtained:
# XIAP protein [1] = experiment: XIAP protein knock-down in H460 cells (western blot, densitometry); format: cell-based, human
# Experimental: FIGS. 3 and 4 are graphs showing the effects of 4×4 mixed backbone (MBO) FG8 or E12 oligonucleotides in amounts of 31 nM (FIG. 3) or 63 nM (FIG. 4). H460 lung carcinoma cells were transfected for 18 hours on one, two, or three consecutive days using 125 nM MBOs and Lipofectamine 2000. Samples for western analysis were harvested at the indicated time. Scanning densitometry was performed, and XIAP protein levels were normalized to GAPDH and compared to a mock control set to 100%. The indicated percentages express % XIAP protein knockdown versus specific scrambled controls.
# (§1) One day prior to transfection, H460 cells were plated in 6- or 96-well tissue culture plates. Phosphorothioate antisense oligonucleotides were delivered into cells with Lipofectamine 2000 (Life Technologies) in the form of liposome-oligonucleotide complexes. Following a 4.5 or 6 h transfection, the transfection medium was replaced with RPMI medium containing 10% FBS, and the cells incubated for another 24 or 48 h.
# (§2) The cells or tumor tissue samples were lysed with ice-cold lysis buffer (50 mM Tris, 150 mM NaCl, 2.5 mM EDTA, 0.1% SDS, 0.5% sodium deoxycholate, 1% NP-40, 0.02% sodium azide) containing protease inhibitors (Complete-Mini protease inhibitor tablets; Boehringer Mannheim GmBH, Mannheim, Germany). After incubation for 30 min on ice, samples were centrifuged at 10,000 rpm for 15 min, and stored at −20° C. Protein content in the lysed extracts was determined using a detergent-compatible Bio-Rad assay (Bio-Rad Labs, Hercules, Calif.). Equal amounts of protein (40 μg/lane) were separated on 12% SDS-polyacrylamide gels or 4-15% gradient SDS-polyacrylamide pre-made gels (Bio-Rad) and transferred to nitrocellulose membranes. Primary antibodies against XIAP, Bcl-2 (DAKO, Glostrup, Denmark), Bax (Sigma, St. Louis, Mo.), β-actin (Sigma), caspase-3 (BD PharMingen, San Diego, Calif.), and PARP (BD PharMingen) were used. The secondary antibody was the appropriate horseradish-conjugated anti-mouse or anti-rabbit IgG (Promega, Madison, Wis.). Proteins were detected by enhanced chemiluminescence (ECL; Amersham Pharmacia Biotech, Buckinghamshire, England) and visualized after exposure to Kodak autoradiography film. Scanning densitometry (Molecular Dynamics, Sunnyvale, Calif.) was performed to quantify band intensities by volume/area integration. The amount of XIAP, caspase-3, Bcl-2 and Bax in cells was normalized to their respective lane β-actin levels, upon stripping and reprobing.
# pro-caspase-3, PARP = experiment: Pro-caspase-3 and PARP protein in H460 cells (western blot); format: cell-based, human; conditions: 1.2 μM
# Experimental: as §1, §2
# Bcl-2 and Bax = experiment: Bcl-2:Bax ratio in H460 cells (western blot); format: cell-based, human; conditions: 1.2 μM
# Experimental: FIGS. 11A and 11B are schematic illustrations showing XIAP oligonucleotide-mediated effects on caspase activation. The effect of XIAP oligonucleotides F3, G4, or C5, or their respective RP and SC ODN controls at 1.2 μM on the expression of pro-caspase-3, PARP (both full length (116 kDa) and processed (85 kDa)) (FIG. 10A) and Bcl-2 and Bax protein levels (FIG. 10B) in transfected H460 cells compared to control is shown. Proteins expression was analyzed by western blotting. Bcl-2 and Bax protein levels were normalized to cellular actin levels and quantified by densitometry. […]
# The cells or tumor tissue samples were lysed with ice-cold lysis buffer (50 mM Tris, 150 mM NaCl, 2.5 mM EDTA, 0.1% SDS, 0.5% sodium deoxycholate, 1% NP-40, 0.02% sodium azide) containing protease inhibitors (Complete-Mini protease inhibitor tablets; Boehringer Mannheim GmBH, Mannheim, Germany). […] Protein content in the lysed extracts was determined using a detergent-compatible Bio-Rad assay (Bio-Rad Labs, Hercules, Calif.). […] Proteins were detected by enhanced chemiluminescence (ECL; Amersham Pharmacia Biotech, Buckinghamshire, England) and visualized after exposure to Kodak autoradiography film. Scanning densitometry (Molecular Dynamics, Sunnyvale, Calif.) was performed to quantify band intensities by volume/area integration. […]
# [2] = test system: subcutaneous H460 human non-small-cell lung tumor xenografts; experiment: Systemic (i.p.) oligonucleotides with or without vinorelbine in H460 xenografts; format: in vivo, SCID-RAG2 mice; conditions: for antitumor efficacy on H460 xenografts (in words): systemic, oligonucleotide 15 mg/kg i.p., VNB 5 or 10 mg/kg i.v.
# Experimental: (§3) Initial systemic PS-oligonucleotide studies were designed without any chemotherapeutic agents. SCID-RAG2 mice were inoculated with H460 human lung carcinoma cells (s.c. shoulder injection of 10^6 cells) and treatments with G4 and F3 AS PS-oligonucleotides, as well as a scrambled control, were initiated three days after tumor inoculation. Nucleobase oligomer injections were administered i.p. at 12.5 mg/kg three times a week for three weeks. At the end of the treatment period, mean tumor sizes in the groups treated with either G4 or F3 AS oligonucleotides were ˜50% smaller than in the group treated with a scrambled control oligonucleotides (FIG. 15). The same treatment protocol was tested on female SCID-RAG2 mice inoculated orthotopically with MDA-MB-435/LCC6 human breast carcinoma cells. Two weeks after the last treatment (day 35) tumor volumes of mice treated with F3, C5 or G4 AS oligonucleotides were 70%, 60%, and 45%, respectively, smaller than vehicle controls (FIG. 16).
# We conducted additional examination of the antitumor effects of G4 AS oligonucleotides in SCID-RAG2 mice bearing xenografts of H460 human non-small-cell lung tumors implanted subcutaneously. Saline-treated control tumors grew reproducibly to a size of 0.75 cm^3 within approximately 24 days (FIG. 17). Oligonucleotide treatments were initiated three days after tumor cell inoculation. G4 AS oligonucleotides (5 to 15 mg/kg) were administered using a treatment schedule of i.p. injections given once a day on days 3-7, 10-14, and 17-21. The treatment with 5 or 15 mg/kg G4 AS oligonucleotides greatly delayed tumor growth: on day 24 mean tumor sizes were 0.75, 0.45 and 0.29 cm^3 in control, 5 and 15 mg/kg treated groups, respectively (FIG. 18A). There was a dose-dependent inhibition of tumor growth. […] A dose of 15 mg/kg was selected for the future combination treatment regimens with anticancer drugs.
# The human non-small cell lung cancer cell line (large cell type) NCI-H460 (H460) was obtained from ATCC and maintained in RPMI 1640 supplemented with 10% FCS at 37° C. in a humidified atmosphere containing 5% CO2. Cells were used in exponential growth phase, up to a maximum of 25 in vitro passages. Male SCID-RAG2 mice (7-9 weeks old, 23-26 g) were obtained from British Columbia Cancer Agency Joint Animal Facility breeding colony and kept in aseptic environments. A tumor model of NCI-H460 cells in SCID-RAG2 mice was established by subcutaneous implantation of 1×10^6 NCI-H460 cells on the back of mice.
# (§4) Efficacy experiments were conducted in male RAG2 immunodeficient mice bearing NCI-H460 tumours or female RAG2 mice bearing LCC6 tumors. Treatments were commenced on day 3 after tumor inoculation. Saline (controls), G4 AS oligonucleotides (5 or 15 mg/kg), or G4 SC oligonucleotides (5 or 15 mg/kg) were administered i.p. daily for five doses a week over a three week regimen. Vinorelbine (VNB, 5 or 10 mg/kg) was administered i.v. via the tail vein, either alone or in combination with oligonucleotides, at day 3, 7, 11 and 17 after tumor inoculation. When oligonucleotides were administered in combination with VNB, the drug treatment was performed four hours after ODN treatment.
# (§5) Mice were observed daily. Body weight measurements and signs of stress (e.g., lethargy, ruffled coat, ataxia) were used to detect possible toxicities. Animals with ulcerated tumor, or tumor volumes of 1 cm^3 or greater were killed. Digital caliper measurements of tumors were converted into mean tumor size (cm^3) using the formula: ½[length (cm)]×[width (cm)]^2. An average tumor size per mouse was used to calculate the group mean tumor size±SE (n=6 mice) from at least two independent experiments per group.
# [3] = test system: MDA-MB-435/LCC6 human breast carcinoma xenografts; experiment: Systemic (i.p.) PS-oligonucleotides in LCC6 breast carcinoma xenografts; format: in vivo, female SCID-RAG2 mice; conditions: 12.5 mg/kg i.p.; day 35, two weeks after the last treatment
# Experimental: as §3, §4
# H460 cells [4] = experiment: Apoptotic flow cytometric assay (PI staining, hypo-diploid DNA content); format: cell-based, human; conditions: 1.2 μM, untreated control 16.6%
# Experimental: Cells were treated with liposome-oligonucleotide complexes for 4.5 h, and incubated for another 48 h in the medium without transfection reagent at 37° C. Following incubation, cells were harvested, washed twice with sample buffer (0.5% glucose in PBS without Ca^++ and Mg^++), and fixed in cold 70% ethanol at 4° C. for at least 18 hrs. Samples were centrifuged at 3000 rpm for 10 min, then resuspended in sample buffer containing 50 μg/ml propidium iodide (PI) and 400 U/ml RNase A. Samples were incubated for 30 min at room temperature and 30 min on ice, followed by flow cytometry analysis. EXPO Software (Applied Cytometry Systems, Sacramento, Calif.) was used to generate histograms, which were used to determine the cell cycle phase distribution after debris exclusion. The Sub G1/G0 cell fraction was considered as representative for apoptotic cells.
# H460 cells [5] = experiment: Nuclear morphology (DAPI staining); format: cell-based, human; conditions: 1.2 μM
# Experimental: Cells were treated with liposome-oligonucleotde complexes for 4.5 h, and incubated for another 48 h at 37° C. in the medium without transfection reagent or oligonucleotides. Cells were harvested and stained with 0.10 μg/ml DAP1 (4′, 6-diamidino-2-2-phenylindole) for 30 min at room temperature. Cells were placed on a glass slide, cytospun, and viewed with a Leica microscope and 40× objective lens under UV fluorescent illumination. Digital images were captured using Imagedatabase V. 4.01 Software (Leica, Germany).
# H460 cells [6] = experiment: H460 cell growth, viability or death (MTT assay); format: cell-based, human; conditions: 1.2 μM
# Experimental: Growth inhibition of […] cells was determined by the colorimetric MTT cell viability/proliferation assay. In brief, cells were treated with liposome-oligonucleotide complexes for 4.5 h, then incubated for another 48 h at 37° C. in medium without transfection reagent or oligonucleotides in the presence or absence of anticancer drugs. MTT (25 μg/well) was added to each well, and the plates incubated for 3 h at 37° C. Following the incubation step, the colored formazan product was dissolved by the addition of 200 μl DMSO. Plates were read using the microtiter plate reader (Dynex Technologies Inc., Chantilly, Va.) at a wavelength of 570 nm. The percentage of surviving cells in wells treated with oligonucleotides was normalized to untreated controls. All assays were performed in triplicate.
# [7] = mouse, in vivo
# Description: as §5
# XIAP RNA = XIAP RNA knock-down in T24 cells (TaqMan quantitative PCR); format: cell-based, human
# Procedure, shortened: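 T24 bladder carcinoma cells (1.5×10^4/well) cultured 24 h in antibiotic-free McCoy's medium, then transfected with antisense oligonucleotides using Lipofectamine-based conditions optimized on survivin knock-down. XIAP mRNA measured by TaqMan RT-qPCR, quantified relative to GAPDH by the comparative Ct method.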
# XIAP protein [8] = experiment: XIAP protein knock-down in T24 cells (XIAP ELISA, relative to total protein); format: cell-based, human
# Procedure, shortened: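 T24 bladder carcinoma cells transfected with antisense oligonucleotides using Lipofectamine plus in serum-free, antibiotic-free McCoy's medium for three hours, then serum added. XIAP protein measured by colorimetric sandwich ELISA on day 4, normalized to total cellular protein and compared with mock transfection.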
# XIAP mRNA = XIAP mRNA knock-down in H460 cells (real-time RT-PCR / TaqMan); format: cell-based, human
# Procedure, shortened: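 NCI-H460 cells transfected with phosphorothioate antisense oligonucleotides via Lipofectamine 2000; RNA isolated after 6 h treatment. XIAP mRNA quantified by one-step TaqMan real-time RT-PCR, comparative Ct (threshold 30× baseline SD), normalized to GAPDH and expressed relative to untreated control cells.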
# T24 cells = experiment: Visual inspection of T24 cell morphology after transfection; format: cell-based, human; conditions: twenty hours after transfection
# Description: The occurrence of cytoxicity induced by oligonucleotide E4 was examined by visually inspecting T24 cells that were left untreated, mock transfected, or transfected with E4, E4 scrambled, E4 reverse polarity, or E4 mismatched oligonucleotides. Twenty hours after transfection, the cells were examined for morphology (FIG. 5D).
molecule,measurement,setting,value
"ATCTTCTCTTGAAAATAGG (DNA, all phosphorothioate, methylation of C not given here) [F3 AS]",reduction of XIAP protein level,"XIAP protein [1]; 1.2 μM, 24 h after the end of transfection",50%
same,reduction of pro-caspase-3 protein levels compared to untreated control,"pro-caspase-3, PARP",40%
same,ratio of Bcl-2:Bax,Bcl-2 and Bax,unchanged
same,mean tumor size smaller than scrambled control group,"[2]; PS-oligonucleotides 12.5 mg/kg i.p. three times a week for three weeks, end of treatment",~50%
same,tumor volumes smaller than vehicle controls,[3],70%
"GGCTCTTTGCCCACTGAAT (dG*dG*dC*dT*dC*dT*dT*dT*dG*dC*dC*dC*dA*dC*dT*dG*dA*dA*dT) [G4 SC, reference compound]",effect on XIAP protein levels (in words),XIAP protein [1],little XIAP loss
same,effect on caspase-3 or PARP protein expression,"pro-caspase-3, PARP",did not have any effect
same,hypo-diploid DNA content of cells,H460 cells [4],22.1%
same,nuclear morphological changes characteristic of apoptosis,H460 cells [5],Few cells showed these morphological changes
same,cell death,H460 cells [6]; H460 cells,less than 10%
same,reduction of H460 cell growth relative to untreated control,"H460 cells [6]; MTT, 48 hours after transfection",less than 10%
same,"tumors reduced in size, % of control tumors","[2]; 15 mg/kg, day 21 or 24",24%
same,antitumor efficacy on H460 xenografts (in words),[2],no therapeutic activity
"CCC1=C[C@@H]2CN(C1)Cc1c([nH]c3ccccc13)[C@@](C(=O)OC)(c1cc3c(cc1OC)N(C)[C@H]1[C@@](O)(C(=O)OC)[C@H](OC(C)=O)[C@]4(CC)C=CCN5CC[C@]31[C@@H]54)C2 [VNB, vinorelbine, reference compound]",average tumor size,"[2]; day 29, VNB 5 mg/kg, oligonucleotides 15 mg/kg",0.59±0.04 cm^3
same,antitumor efficacy on H460 xenografts (in words),[2],significant tumor growth suppression
same,signs of toxicity in mice,[7],without showing significant signs of undesirable toxicity
CGCACGGTATCTCCTTCAC (antisense; chemistry not fully specified) [Code E4],XIAP down-regulation T24 RNA,XIAP RNA,47%
same,XIAP down-regulation T24 protein,XIAP protein [8],34%
same,"XIAP protein levels relative to total protein, compared to mock transfection (in words)",XIAP protein [8]; first screen of the library,some decrease
same,XIAP down-regulation H460 RNA,XIAP mRNA,51%
same,signs of toxicity (cell morphology),T24 cells,showed signs of toxicity
